This assay deals with VEGF. Put plainly: VEGF ELISA on plasma from renal cell carcinoma patients treated with Sorafenib. Format: in vivo, human. In general terms: ELISA stands for enzyme-linked immunosorbent assay.

Each structure is given as a SMILES string.

Experimental: Duplicate samples were used to measure the VEGF level using a VEGF ELISA (R&D Systems, Minneapolis, Minn.) per the manufacturers directions. The mean value of the duplicate measurements was determined for each patient.

`CNC(=O)c1cc(Oc2ccc(NC(=O)Nc3ccc(Cl)c(C(F)(F)F)c3)cc2)ccn1` [Sorafenib]: the “Median VEGF” value (Baseline (pretreatment)) is 237.4 pg/mL, the “Median VEGF” value (Cycle 1 Day 21) was 301.6 pg/mL and the “Median VEGF” value (Cycle 3 Day 1) worked out at 309.0 pg/mL. Moreover, the “change of VEGF levels from baseline” value (at both time points (Cycle 1 Day 21, Cycle 3 Day 1), p<<0.01, paired t-test) was “increase significantly from baseline”.

For the origin of these results see patent US20080311601A1, “Methods for Prediction and Prognosis of Cancer, and Monitoring Cancer Therapy” (priority 2005, published 2008).
